These results are taken from patent US20260226069A1, “GCN2 AND PERK KINASE MODULATORS AND METHODS OF USE THEREOF” (Deciphera Pharmaceuticals, LLC, priority 2023, published 2026).

Experiment [1] concerns ATF4 in Thapsigargin stimulated CCRF-CEM cells. Description: CCRF-CEM TG ATF4 ELISA, phenotypic assay for cellular inhibition of PERK preactivated by thapsigargin. The class given is cell-based. Particulars: Homo sapiens, 3 h, compound three hours then 1 μM thapsigargin for an additional hour. The protocol:
CCRF-CEM TG ATF4 ELISA, a Phenotypic Assay for Cellular Inhibition of PERK Preactivated by Thapsigargin (TG)
CCRF-CEM leukemia cells (catalog #CCL-116) were obtained from the American Type Culture Collection (ATTC, Manassas, VA). Briefly, cells were grown in RPMI-1640 medium supplemented with 10% heat-inactivated fetal bovine serum (Invitrogen, Carlsbad, CA) and 1% Penicillin/Streptomycin/L-Glutamine at 37° C., 5% CO2, and 95% humidity. Cells were expanded until reaching one million cells per mL at which time they were subcultured or harvested for assay use. One million five hundred thousand cells per well in 1 mL complete growth medium were dispensed into 12-well plates and incubated overnight. A serial dilution of test compound was added and cells were incubated at 37° C., 5% CO2, and 95% for three hours, then 1 μM thapsigargin was added and cells were incubated for an additional hour at 37° C., 5% CO2, and 95%. Cells were lysed then ATF4 levels were measured using an ELISA assay (Proteintech, Rosemont, IL). Absorbance was measured at 450 nm and 544 nM using a Synergy2 or equivalent reader (Biotek, Winooski VT). Data was analyzed using PRISM software (Graphpad, San Diego, CA) to calculate IC50 values.

The test system of experiment [2] is ATF4 in H929 Multiple Myeloma cells. Put plainly: H929 ATF4 ELISA assay. The experiment is classed as cell-based. Particulars: four hours, fold stimulation of cellular ATF4 relative to vehicle treated control. The protocol: H929 multiple myeloma cells (catalog #CRL-9068) were obtained from the American Type Culture Collection (ATTC, Manassas, VA). Briefly, cells were grown in RPMI-1640 medium supplemented with 20% heat-inactivated fetal bovine serum (catalog #A3840002, ThermoFisher Scientific, Waltham, MA), 1% Penicillin/Streptomycin/L-Glutamine (catalog #10378016, ThermoFisher Scientific, Waltham, MA), and 0.05 mM 2-mercaptoethanol (catalog #21985-023, ThermoFisher Scientific, Waltham, MA) at 37° C., 5% CO2, and 95% humidity. Cells were expanded until reaching one million five hundred thousand cells per mL at which time they were sub-cultured or harvested for assay use. One million five hundred thousand cells per well in 1 mL complete growth medium were dispensed into 12-well plates and incubated overnight. A serial dilution of test compound was added, and cells were incubated at 37° C., 5% CO2, and 95% for four hours. Cells were lysed then ATF4 levels were measured using an ELISA assay (Proteintech, Rosemont, IL). Absorbance is measured at 450 nm and 544 nM using a Synergy2 or equivalent reader (Biotek, Winooski VT). Data were analyzed using PRISM software (Graphpad, San Diego, CA) to calculate fold stimulation of cellular ATF4 relative to vehicle treated control.
(In general: In an ELISA, binding on a coated surface is turned into a signal by an enzyme label.)

Experiment [3] deals with T1, GCN2 kinase (Homo sapiens, UniProt Q9P2K8).
T1 construct: G556E with a; purchased Carna Biosciences
Put plainly: Biochemical assay for GCN2 (TR-FRET kinase activity assay). Particulars: 2 nM GCN2, 1 mM ATP, 3-hour incubation. The protocol:
Biochemical assay for GCN2
Activity of GCN2 kinase was determined using a TR-FRET kinase activity assay (e.g., Analytical Biochemistry, 2006, 356, 108-116). Assays were conducted in 384-well plates (13 μL assay volume) using 2 nM GCN2 (Carna Biosciences), 130 nM GFP-EIf2α (Invitrogen), 0.2 mg/mL E. coli tRNA (sigma) and 1 mM ATP in kinase buffer (Invitrogen). Inhibition of GCN2 was measured by adding serial diluted test compound (final assay concentration of 0.5% DMSO) followed by a 3-hour incubation. Tb-peIF2α (pSer52) antibody (Invitrogen) (2 nM final assay concentration) in kinase buffer containing EDTA (final assay concentration of 20 mM) was added. After a 60 min incubation at room temperature, TR-FRET was monitored using an excitation wavelength of 340 nm and emission wavelengths of 490 nm and 520 nm. The emission ratio (520/490) at each compound concentration of was converted to percent inhibition using controls (i.e., reaction with no test compound and reaction with a known inhibitor) and IC50 values were calculated by fitting a four-parameter sigmoidal curve to the data using Prism (GraphPad software).

Experiment [4] concerns the target T2, PERK kinase (Homo sapiens, UniProt Q9NZJ5, A704S).
T2 construct: GST (with thrombin site LVPRGS); purchased Beryllium
Put plainly: Biochemical assay for PERK (coupled pyruvate kinase/lactate dehydrogenase assay). To be noted: 10 nM PERK, 1 mM ATP, reaction rate 2-3 h time frame, 30° C. On the procedure:
Biochemical Assay for PERK
Activity of PERK kinase was determined spectroscopically using a coupled pyruvate kinase/lactate dehydrogenase assay that continuously monitors the ATP hydrolysis-dependent oxidation of NADH (Science, 2000, 289, 1938-1942). Assays were conducted in 384-well plates (100 μL final volume) using 10 nM PERK (from Beryllium), 0.25 mg/mL Myelin Basic Protein substrate, 1.5 units pyruvate kinase, 2.1 units lactate dehydrogenase, 1 mM phosphoenol pyruvate, 0.28 mM NADH and 1 mM ATP in assay buffer (100 mM Tris, pH 7.5, 15 mM MgCl2, 0.5 mM DTT, 0.004% (w/v) BSA, and 0.004% Triton X-100). Inhibition of PERK was measured by adding serial diluted test compound (final assay concentration of 1% DMSO). A decrease in absorption at 340 nm was monitored continuously for 6 hours at 30° C. on a multi-mode microplate reader (BioTek). The reaction rate was calculated using the 2-3 h time frame. The reaction rate at each concentration of compound was converted to percent inhibition using controls (i.e., reaction with no test compound and reaction with a known inhibitor) and IC50 values were calculated using software routines in Prism (GraphPad software).

Experiment [5] has as its system ASNase treated CCRF-CEM cells. Put plainly: CCRF-CEM ASNase cell proliferation assay, phenotypic assay for cellular inhibition of GCN2. The experiment is classed as cell-based. To be noted: Homo sapiens, 1 mU/mL ASNase, 72 h, resazurin. The protocol:
CCRF-CEM ASNase Cell Proliferation Assay, a Phenotypic Assay for Cellular Inhibition of GCN2.
CCRF-CEM leukemia cells (catalog #CCL-116) were obtained from the American Type Culture Collect (ATTC, Manassas, VA). Cells were grown in RPMI-1640 medium supplemented with 10% heat-inactivated fetal bovine serum (Invitrogen, Carlsbad, CA) and 1% Penicillin/Streptomycin/L-Glutamine at 37° C., 5% CO2, and 95% humidity. Cells were expanded until reaching one million cells per mL at which time they are subcultured or harvested for assay use. Ten thousand cells per well in 200 μL RPMI-1640 supplemented with 10% heat-inactivated fetal bovine serum and 1% Penicillin/Streptomycin were dispensed into a 96-well black clear bottom plate. A serial dilution of test compound and 1 mU/mL ASNase was added in triplicate and plates were incubated for 72 h at 37° C., 5% CO2, and 95% humidity. At the end of the incubation, 40 μL of a […] solution of resazurin (Sigma, St. Louis, MO) in PBS was added to each well of the plate and plates were incubated for an additional 6 h at 37° C., 5% CO2, and 95% humidity. Plates were read on a Synergy2 or equivalent reader (Biotek, Winooski VT) using an excitation of 540 nm and an emission of 600 nm. Data was analyzed using GraphPad Prism software (GraphPad, San Diego, CA) to calculate IC50 values.
For orientation: The colour change of resazurin is a common sign of viable cells or microbes.

T2 sequence (Q9NZJ5 with tags, fused parts or gaps A704S): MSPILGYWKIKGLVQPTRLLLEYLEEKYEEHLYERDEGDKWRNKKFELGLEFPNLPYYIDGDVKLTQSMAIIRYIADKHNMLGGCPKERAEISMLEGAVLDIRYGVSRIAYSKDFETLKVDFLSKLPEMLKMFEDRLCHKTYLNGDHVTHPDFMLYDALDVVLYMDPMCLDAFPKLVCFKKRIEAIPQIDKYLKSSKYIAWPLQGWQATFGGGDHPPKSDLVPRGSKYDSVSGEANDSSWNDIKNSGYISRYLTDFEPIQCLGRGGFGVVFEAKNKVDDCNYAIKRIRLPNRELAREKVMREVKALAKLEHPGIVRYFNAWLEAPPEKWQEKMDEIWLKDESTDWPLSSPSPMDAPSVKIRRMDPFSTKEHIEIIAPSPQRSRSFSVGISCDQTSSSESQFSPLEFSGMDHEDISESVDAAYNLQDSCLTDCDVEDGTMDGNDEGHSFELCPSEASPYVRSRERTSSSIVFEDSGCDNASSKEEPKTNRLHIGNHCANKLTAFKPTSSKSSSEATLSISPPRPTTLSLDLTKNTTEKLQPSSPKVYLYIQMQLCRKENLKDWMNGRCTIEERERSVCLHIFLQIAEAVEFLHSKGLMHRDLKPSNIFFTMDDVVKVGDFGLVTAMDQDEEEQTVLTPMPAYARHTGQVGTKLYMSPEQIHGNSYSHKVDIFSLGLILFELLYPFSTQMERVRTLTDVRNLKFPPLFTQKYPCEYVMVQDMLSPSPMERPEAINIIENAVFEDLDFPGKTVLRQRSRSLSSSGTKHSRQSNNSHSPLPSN

As to `CC(=O)OCc1cc(Cl)cc(S(=O)(=O)Nc2cccc(-c3nc(C)n4ccnc(N)c34)c2F)c1Cl` [Example 1, 3-(N-(3-(8-amino-3-methylimidazo[1,5-a]pyrazin-1-yl)-2-fluorophenyl)sulfamoyl)-2,5-dichlorobenzyl acetate], the IC50 (as a rule, the midpoint of a concentration-inhibition curve) in experiment [1] is 500 to 1000 nM; in experiment [3], 1000 to 10000 nM; in experiment [4], 100 to 500 nM; in experiment [5] it was 500 to 1000 nM. Further, in experiment [2], the “H929 NS ATF4 ELISA” value is “++++ (an ATF4 stim greater than 20-fold)”.

For the molecule `CC(C)(C)c1nc(-c2cccc(NS(=O)(=O)c3cc(Cl)cc(CO)c3Cl)c2F)c2c(N)nccn12` [Example 9], the IC50 in experiment [1] is 100 to 500 nM; in experiment [3], 100 to 500 nM; in experiment [4], at most 100 nM; in experiment [5], 100 to 500 nM. For the same molecule, the “H929 NS ATF4 ELISA” value in experiment [2] is “+++ (an ATF4 stim greater than 10-fold and less than or equal to 20-fold)”.

For the molecule `Nc1ncnn2ccc(-c3cccc(NS(=O)(=O)c4cc(Cl)cc(CO)c4Cl)c3F)c12` [Example 3], the 50% inhibitory concentration (IC50) in experiment [1] was 100 to 500 nM; in experiment [3] it was 100 to 500 nM; in experiment [4], at most 100 nM; in experiment [5] it was 100 to 500 nM. Besides, the “H929 NS ATF4 ELISA” value in experiment [2] is “++ (an ATF4 stim greater than 5-fold and less than or equal to 10-fold)”.

As to `Cn1cc(-c2cccc(NS(=O)(=O)c3cc(F)c(Br)cc3F)c2F)c2c(N)ncnc21` [Example 38], the 50% inhibitory concentration (IC50) in experiment [1] was 100 to 500 nM; in experiment [3], 1000 to 10000 nM; in experiment [4], at most 100 nM; in experiment [5], 1000 to 10000 nM. In addition, in experiment [2], the “H929 NS ATF4 ELISA” value is given as “+ (an ATF4 stim less than or equal to 5-fold)”.

For the molecule `Cc1cc(-c2cccc(NS(=O)(=O)c3cc(Cl)cc(CO)c3Cl)c2F)c2c(N)ncnn12` [Example 13], the half-inhibitory concentration (IC50) was 100 to 500 nM in experiment [1], 100 to 500 nM in experiment [3], at most 100 nM in experiment [4] and 100 to 500 nM in experiment [5]. Moreover, the “H929 NS ATF4 ELISA” value in experiment [2] is “+++ (an ATF4 stim greater than 10-fold and less than or equal to 20-fold)”.

Take `CNc1nc(-c2cccc(NS(=O)(=O)c3cc(Cl)cc(CO)c3Cl)c2F)c2c(N)nccn12` [Example 26]: the IC50 in experiment [1] is 100 to 500 nM; in experiment [3], at most 100 nM; in experiment [4] it was at most 100 nM; in experiment [5], 100 to 500 nM. In experiment [2], the “H929 NS ATF4 ELISA” value was “++ (an ATF4 stim greater than 5-fold and less than or equal to 10-fold)”.

For the molecule `Nc1nccn2c(C3CCC3)nc(-c3cccc(NS(=O)(=O)c4cc(Cl)cc(CO)c4Cl)c3F)c12` [Example 17], the IC50 in experiment [1] was 100 to 500 nM; in experiment [3], at most 100 nM; in experiment [4], at most 100 nM; in experiment [5], 100 to 500 nM. Besides, in experiment [2], the “H929 NS ATF4 ELISA” value was “+++ (an ATF4 stim greater than 10-fold and less than or equal to 20-fold)”.

Take `Nc1nccn2c(-c3cn[nH]c3)nc(-c3cccc(NS(=O)(=O)c4cc(Cl)cc(CO)c4Cl)c3F)c12` [Example 19]: the half-inhibitory concentration (IC50) in experiment [1] was 500 to 1000 nM; in experiment [3], at most 100 nM; in experiment [4] it was at most 100 nM; in experiment [5] it was 100 to 500 nM. Moreover, the “H929 NS ATF4 ELISA” value in experiment [2] was “++ (an ATF4 stim greater than 5-fold and less than or equal to 10-fold)”.

With `NC(=O)c1cc(-c2cccc(NS(=O)(=O)c3cc(Cl)cc(CO)c3Cl)c2F)c2c(N)ncnn12` [Example 18], the IC50 was 500 to 1000 nM in experiment [1], at most 100 nM in experiment [3], at most 100 nM in experiment [4] and 100 to 500 nM in experiment [5]. In addition, in experiment [2], the “H929 NS ATF4 ELISA” value is “++ (an ATF4 stim greater than 5-fold and less than or equal to 10-fold)”.
